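Five concentrations, 48 hours, 96-well plates. The concentration for full growth arrest is given as TGI.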
Columns and labels:
Assay in all cases: NCI-60 cell line screen, 48 h
[1] = test system: 786-0 renal
[2] = test system: A498 renal
[3] = test system: A549 NSCLC
[4] = test system: ACHN renal
[5] = test system: BT-549 breast
[6] = test system: CAKI-1 renal
[7] = test system: CCRF-CEM leukemia
[8] = test system: COLO 205 colon
[9] = test system: DU-145 prostate
[10] = test system: EKVX NSCLC
[11] = test system: HCC-2998 colon
[12] = test system: HCT-116 colon
[13] = test system: HCT-15 colon
[14] = test system: HL-60(TB) leukemia
[15] = test system: HOP-62 NSCLC
[16] = test system: HOP-92 NSCLC
[17] = test system: HS 578T breast
[18] = test system: HT29 colon
[19] = test system: IGROV1 ovarian
[20] = test system: K-562 leukemia
[21] = test system: KM12 colon
[22] = test system: LOX IMVI melanoma
[23] = test system: M14 melanoma
[24] = test system: MALME-3M melanoma
[25] = test system: MCF7 breast
[26] = test system: MDA-MB-231 breast
[27] = test system: MDA-MB-435
[28] = test system: MDA-N
[29] = test system: MOLT-4 leukemia
[30] = test system: NCI-H226 lung
[31] = test system: NCI-H23 lung
[32] = test system: NCI-H460 lung
[33] = test system: NCI-H522 lung
[34] = test system: NCI/ADR-RES ovarian
[35] = test system: OVCAR-3 ovarian
[36] = test system: OVCAR-4 ovarian
[37] = test system: OVCAR-5 ovarian
[38] = test system: OVCAR-8 ovarian
[39] = test system: PC-3 prostate
[40] = test system: RPMI-8226 leukemia
[41] = test system: RXF 393 renal
[42] = test system: SF-268 CNS
[43] = test system: SF-295 CNS
[44] = test system: SF-539 CNS
[45] = test system: SK-MEL-2 melanoma
[46] = test system: SK-MEL-28 melanoma
[47] = test system: SK-MEL-5 melanoma
[48] = test system: SK-OV-3 ovarian
[49] = test system: SN12C renal
[50] = test system: SNB-19 CNS
[51] = test system: SNB-75 CNS
[52] = test system: SR leukemia
[53] = test system: SW-620 colon
[54] = test system: T-47D breast
[55] = test system: TK-10 renal
[56] = test system: U251 CNS
[57] = test system: UACC-257 melanoma
[58] = test system: UACC-62 melanoma
[59] = test system: UO-31 renal

`O=C(NNCc1ccco1)c1cc2ccccc2[nH]1` gave a TGI [1] greater than 100 µM, a TGI [2] greater than 100 µM and a TGI [3] greater than 100 µM. The TGI [4] was greater than 100 µM, the TGI [5] was greater than 90.5 µM and the TGI [6] was greater than 100 µM. It also gave a TGI [7] greater than 100 µM, a TGI [8] greater than 100 µM and a TGI [9] greater than 100 µM. For the same compound, the TGI [10] was greater than 100 µM, the TGI [11] was greater than 90.1 µM and the TGI [12] was greater than 100 µM. The TGI [13] was greater than 100 µM, the TGI [14] was 96.9 µM and the TGI [15] was greater than 100 µM. It also gave a TGI [16] greater than 96.4 µM, a TGI [17] greater than 100 µM and a TGI [18] greater than 100 µM. The TGI [19] was greater than 100 µM, the TGI [20] was greater than 100 µM and the TGI [21] was greater than 100 µM. For the same compound, the TGI [22] was greater than 100 µM, the TGI [23] was greater than 100 µM and the TGI [24] was greater than 100 µM. The TGI [25] was greater than 46.3 µM, the TGI [26] was greater than 100 µM and the TGI [27] was greater than 100 µM. For the same compound, the TGI [28] was greater than 100 µM, the TGI [29] was greater than 100 µM and the TGI [30] was greater than 100 µM. It also gave a TGI [31] greater than 100 µM, a TGI [32] greater than 100 µM and a TGI [33] greater than 100 µM. For the same compound, the TGI [34] was greater than 80.8 µM, the TGI [35] was greater than 95 µM and the TGI [36] was greater than 71.8 µM. For the same compound, the TGI [37] was greater than 100 µM, the TGI [38] was greater than 86.5 µM and the TGI [39] was greater than 100 µM. The TGI [40] was greater than 100 µM, the TGI [41] was greater than 100 µM and the TGI [42] was greater than 100 µM. For the same compound, the TGI [43] was greater than 100 µM, the TGI [44] was greater than 84.4 µM and the TGI [45] was greater than 100 µM. The TGI [46] was greater than 100 µM, the TGI [47] was greater than 100 µM and the TGI [48] was greater than 100 µM. For the same compound, the TGI [49] was greater than 100 µM, the TGI [50] was greater than 100 µM and the TGI [51] was greater than 100 µM. It also gave a TGI [52] greater than 100 µM, a TGI [53] greater than 100 µM and a TGI [54] greater than 100 µM. It also gave a TGI [55] greater than 100 µM, a TGI [56] greater than 40.9 µM and a TGI [57] greater than 100 µM. For the same compound, the TGI [58] was greater than 100 µM and the TGI [59] was greater than 100 µM.
In the case of `CN(C)CCCNc1c(C#N)[n+]([O-])c2cc(Cl)ccc2[n+]1[O-]`, the TGI [1] is reported as greater than 100 µM, the TGI [2] is reported as greater than 52.4 µM and the TGI [3] is reported as 31.5 µM. The TGI [4] was 22.2 µM, the TGI [5] was 31.1 µM and the TGI [6] was greater than 51.8 µM. For the same compound, the TGI [7] was 42 µM, the TGI [8] was 14.6 µM and the TGI [9] was greater than 100 µM. It also gave a TGI [10] of 22.5 µM, a TGI [11] of 18.7 µM and a TGI [12] of 30 µM. It also gave a TGI [13] of 18.6 µM, a TGI [14] of 30.3 µM and a TGI [15] greater than 48.7 µM. For the same compound, the TGI [16] was 25.5 µM, the TGI [17] was greater than 100 µM and the TGI [18] was greater than 40 µM. For the same compound, the TGI [19] was 10.5 µM, the TGI [20] was 20.8 µM and the TGI [21] was 26.9 µM. The TGI [22] was 56.9 µM, the TGI [23] was 37.6 µM and the TGI [24] was 17.4 µM. It also gave a TGI [25] greater than 52.7 µM, a TGI [26] of 37.2 µM and a TGI [27] greater than 67.2 µM. For the same compound, the TGI [28] was greater than 59.9 µM, the TGI [29] was 20.2 µM and the TGI [30] was 48.5 µM. The TGI [31] was 23.5 µM, the TGI [32] was 13.2 µM and the TGI [33] was 14.1 µM. The TGI [34] was greater than 57.3 µM, the TGI [35] was greater than 34.9 µM and the TGI [36] was 14.2 µM. It also gave a TGI [37] greater than 100 µM, a TGI [38] greater than 51.3 µM and a TGI [39] greater than 41.3 µM. For the same compound, the TGI [40] was 26.4 µM, the TGI [41] was greater than 100 µM and the TGI [42] was greater than 64.4 µM. The TGI [43] was greater than 49.1 µM, the TGI [44] was 47.4 µM and the TGI [45] was 36.4 µM. The TGI [46] was greater than 100 µM, the TGI [47] was 10.9 µM and the TGI [48] was greater than 67.1 µM. It also gave a TGI [49] of 53.3 µM, a TGI [50] greater than 100 µM and a TGI [51] greater than 100 µM. The TGI [52] was 5.28 µM, the TGI [53] was 37.1 µM and the TGI [54] was 40.7 µM. The TGI [55] was greater than 39.9 µM, the TGI [56] was greater than 66.6 µM and the TGI [57] was greater than 50 µM. The TGI [58] was 17.4 µM and the TGI [59] was greater than 46.3 µM.

— PubChem BioAssay (NCI)
